Converted amounts (≈) assume the structure as drawn. Like-named read-outs stand apart in the source and are kept apart here.
Tests used:
Format in all cases: cell-based
[1] = system: Haemophilus influenzae 1218; assay: MIC, microtiter broth dilution (NCCLS M100-S14), H. influenzae 1218 (susceptible)
How it was run: (§1)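 Compounds were first dissolved in DMSO (40 mg/ml stock), then tested by broth dilution in microtiter trays. MICs were interpreted using the 14th Informational Supplement (M100-S14) criteria.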

[2] = system: Streptococcus pneumoniae 1095; settings: microtiter broth dilution
How it was run: as §1

[3] = system: Streptococcus pneumoniae 1175; settings: microtiter broth dilution
How it was run: as §1

[4] = system: Streptococcus pneumoniae 1016; assay: MIC, microtiter broth dilution (NCCLS M100-S14), S. pneumoniae 1016 (susceptible)
How it was run: as §1

[5] = system: Streptococcus pyogenes 1079; assay: MIC, microtiter broth dilution (NCCLS M100-S14), S. pyogenes 1079 (ermB)
How it was run: as §1

[6] = H. influenzae 1218 (susceptible)
[7] = S. pneumoniae 1016 (susceptible)

Row | SMILES | MIC H. influenzae 1218 ([1]; Haemophilus influenzae 1218) [µg/mL] | MIC S. pneumo. 1095 ([2]; Streptococcus pneumoniae 1095) [µg/mL] | MIC S. pneumo. 1175 ([3]; Streptococcus pneumoniae 1175) [µg/mL] | MIC S. pneumo. 1016 ([4]; Streptococcus pneumoniae 1016) [µg/mL] | MIC S. pyogenes 1079 ([5]; Streptococcus pyogenes 1079) [µg/mL] | MIC H. influenzae 1218 [1, 6] [µg/mL] | MIC S. pneumo. 1095 ([2]; S. pneumoniae 1095 (ermB)) [µg/mL] | MIC S. pneumo. 1175 ([3]; S. pneumoniae 1175 (mefA)) [µg/mL] | MIC S. pneumo. 1016 [4, 7] [µg/mL] | MIC S. pyogenes 1079 ([5]; S. pyogenes 1079 (ermB)) [µg/mL]
1 | CCC1OC(=O)C(C)C(=O)C(C)C(OC2OC(C)CC(N(C)C)C2O)C(C)(OC)CC(C)C(=O)C(C)C2N(C3CN(S(=O)(=O)c4ccc5ccccc5c4)C3)C(=O)OC12C (stereo not drawn) [Example 3.91, 3-descladinosyl-11,12-dideoxy-4-O-methyl-3-oxo-12,11-(oxycarbonyl-(1-(naphthalene-2-sulfonyl)-azetidin-3-yl)-imino)-erythromycin A] | 0.12 (≈ 0.14 µM) | <0.06 | <0.06 | <0.06 | 4 (≈ 4.66 µM) | – | – | – | – | –
2 | CCC1OC(=O)C(C)C(=O)C(C)C(OC2OC(C)CC(N(C)C)C2O)C(C)(OC)CC(C)C(=O)C(C)C2N(C3CN(Cc4ccncc4Cl)C3)C(=O)OC12C (stereo not drawn) [Example 1.79, 3-descladinosyl-11,12-dideoxy-6-O-methyl-3-oxo-12,11-(oxycarbonyl-(1-(3-chloropyridine-4-methyl)-azetidin-3-yl)-imino)-erythromycin A] | 1 (≈ 1.26 µM) | <0.063 | <0.063 | <0.063 | 4 (≈ 5.04 µM) | – | – | – | – | –
3 | CCC1OC(=O)C(C)C(=O)C(C)C(OC2OC(C)CC(N(C)C)C2O)C(C)(OC)CC(C)C(=O)C(C)C2N(CC3CN(Cc4cccc5nccnc45)C3)C(=O)OC12C (stereo not drawn) [4.17] | 0.25 (≈ 0.303 µM) | 0.5 (≈ 0.607 µM) | 0.12 (≈ 0.146 µM) | <0.06 | 64 (≈ 77.7 µM) | – | – | – | – | –
4 | CCC1OC(=O)C(C)C(=O)C(C)C(OC2OC(C)CC(N(C)C)C2O)C(C)(OC)CC(C)C(=O)C(C)C2N(C3CN(S(=O)(=O)c4cncc(-n5cccn5)c4)C3)C(=O)OC12C (stereo not drawn) [Example 3.80, 3-descladinosyl-11,12-dideoxy-6-O-methyl-3-oxo-12,11-(oxycarbonyl-(1-(5-(1H-pyrazol-1-yl)pyridine-3-sulfonyl)-azetidin-3-yl)-imino)erythromycin A] | >64.00 | <0.06 | <0.06 | <0.06 | 4 (≈ 4.57 µM) | – | – | – | – | –
5 | CCC1OC(=O)C(C)C(=O)C(C)C(OC2OC(C)CC(N(C)C)C2O)C(C)(OC)CC(C)C(=O)C(C)C2N(CC3CN(C(=O)c4cccc5ncccc45)C3)C(=O)OC12C (stereo not drawn) [4.32] | 1 (≈ 1.19 µM) | 0.5 (≈ 0.597 µM) | <0.06 | <0.06 | 64 (≈ 76.5 µM) | – | – | – | – | –
6 | CCC1OC(=O)C(C)C(=O)C(C)C(OC2OC(C)CC(N(C)C)C2O)C(C)(OC)CC(C)C(=O)C(C)C2N(CC3CCN(C(=O)c4ccc5ncccc5c4)C3)C(=O)OC12C (stereo not drawn) [13.12] | – | – | – | – | – | 4 (≈ 4.7 µM) | >64.00 | 0.5 (≈ 0.588 µM) | <0.06 | >64.00
7 | CCC1OC(=O)C(C)C(=O)C(C)C(OC2OC(C)CC(N(C)C)C2O)C(C)(OC)CC(C)C(=O)C(C)C2N(C3CN(C(=O)Nc4cc(-c5ccc(F)cc5)n[nH]4)C3)C(=O)OC12C (stereo not drawn) [Example 2.07] | 16 (≈ 18.4 µM) | 4 (≈ 4.59 µM) | 32 (≈ 36.7 µM) | <0.06 | 16 (≈ 18.4 µM) | – | – | – | – | –
8 | CCC1OC(=O)C(C)C(=O)C(C)C(OC2OC(C)CC(N(C)C)C2O)C(C)(OC)CC(C)C(=O)C(C)C2N(CC3CCCN3C(=O)c3cc4cnccc4nc3C)C(=O)OC12C (stereo not drawn) [10.41] | – | – | – | – | – | 2 (≈ 2.31 µM) | <0.06 | <0.06 | <0.06 | >64.00
9 | CC[C@H]1OC(=O)[C@H](C)C(=O)[C@H](C)[C@@H](O[C@@H]2O[C@H](C)C[C@H](N(C)C)[C@H]2O)[C@](C)(OC)C[C@@H](C)C(=O)[C@H](C)[C@H]2N(CC3(O)CN(C(=O)c4cc5ncccc5[nH]4)C3)C(=O)O[C@]12C.O=CO [7.32] | – | – | – | – | – | 2 | <0.06 | 2 | <0.06 | >64.00
10 | CCC1OC(=O)C(C)C(=O)C(C)C(OC2OC(C)CC(N(C)C)C2O)C(C)(OC)CC(C)C(=O)C(C)C2N(CC3CCCN3C(=O)c3cnc4ccccc4n3)C(=O)OC12C.O=CO (stereo not drawn) [10.21] | – | – | – | – | – | 2 | <0.06 | 0.12 | <0.06 | >64.00
11 | CC[C@H]1OC(=O)[C@H](C)C(=O)[C@H](C)[C@@H](O[C@@H]2O[C@H](C)C[C@H](N(C)C)[C@H]2O)[C@](C)(OC)C[C@@H](C)C(=O)[C@H](C)[C@H]2N(CC3(O)CN(C(=O)c4cccc5cccnc45)C3)C(=O)O[C@]12C [7.20] | – | – | – | – | – | 0.5 (≈ 0.586 µM) | 2 (≈ 2.34 µM) | 1 (≈ 1.17 µM) | <0.06 | >64.00
12 | CCC1OC(=O)C(C)C(=O)C(C)C(OC2OC(C)CC(N(C)C)C2O)C(C)(OC)CC(C)C(=O)C(C)C2N(CC3CCN(C(=O)c4cccc5ncsc45)C3)C(=O)OC12C (stereo not drawn) [13.14] | – | – | – | – | – | 1 (≈ 1.17 µM) | 2 (≈ 2.33 µM) | <0.06 | <0.06 | >64.00
13 | CCC1OC(=O)C(C)C(=O)C(C)C(OC2OC(C)CC(N(C)C)C2O)C(C)(OC)CC(C)C(=O)C(C)C2N(CC3CCCN3C(=O)c3ccc4ncccc4c3)C(=O)OC12C (stereo not drawn) [12.06] | – | – | – | – | – | 2 (≈ 2.35 µM) | 0.25 (≈ 0.294 µM) | 1 (≈ 1.18 µM) | <0.06 | >64.00
14 | CCC1OC(=O)C(C)C(=O)C(C)C(OC2OC(C)CC(N(C)C)C2O)C(C)(OC)CC(C)C(=O)C(C)C2N(CC3CCCN3C(=O)c3cccc4ccncc34)C(=O)OC12C (stereo not drawn) [10.37] | – | – | – | – | – | 0.5 (≈ 0.588 µM) | <0.06 | <0.06 | <0.06 | 16 (≈ 18.8 µM)
15 | CC[C@H]1OC(=O)[C@H](C)C(=O)[C@H](C)[C@@H](O[C@@H]2O[C@H](C)C[C@H](N(C)C)[C@H]2O)[C@](C)(OC)C[C@@H](C)C(=O)[C@H](C)[C@H]2N(CC3(O)CN(C(=O)c4cc5ccccn5n4)C3)C(=O)O[C@]12C.O=CO [7.30] | – | – | – | – | – | 8 | 0.25 | 0.25 | <0.06 | >64.00
16 | CCC1OC(=O)C(C)C(=O)C(C)C(OC2OC(C)CC(N(C)C)C2O)C(C)(OC)CC(C)C(=O)C(C)C2N(C3CN(S(=O)(=O)c4ccc5c(c4)CS(=O)(=O)C5)C3)C(=O)OC12C (stereo not drawn) [Example 3.95] | 0.5 (≈ 0.557 µM) | <0.06 | <0.06 | <0.06 | 0.12 (≈ 0.134 µM) | – | – | – | – | –
17 | CCC1OC(=O)C(C)C(=O)C(C)C(OC2OC(C)CC(N(C)C)C2O)C(C)(OC)CC(C)C(=O)C(C)C2N(CC3CN(Cc4c(C)ccc5nc[nH]c45)C3)C(=O)OC12C.O=CO (stereo not drawn) [Example 4.44, 3-descladinosyl-11,12-dideoxy-6-O-methyl-3-oxo-12,11-(oxycarbonyl-(1-((6-methyl-1H-benzo[d]imidazol-7-yl)-methyl)-(azetidin-3-yl)-methyl)-imino)-erythromycin A] | 0.25 | 0.5 | <0.06 | <0.06 | 8 | – | – | – | – | –
18 | CC[C@H]1OC(=O)[C@H](C)C(=O)[C@H](C)[C@@H](O[C@@H]2O[C@H](C)C[C@H](N(C)C)[C@H]2O)[C@](C)(OC)C[C@@H](C)C(=O)[C@H](C)[C@H]2N(CC3(O)CN(C(=O)c4ccc5ccccc5n4)C3)C(=O)O[C@]12C [7.22] | – | – | – | – | – | 1 (≈ 1.17 µM) | <0.06 | 0.12 (≈ 0.141 µM) | <0.06 | >64.00
19 | CCC1OC(=O)C(C)C(=O)C(C)C(OC2OC(C)CC(N(C)C)C2O)C(C)(OC)CC(C)C(=O)C(C)C2N(C3CN(S(=O)(=O)c4ccc(-n5nccn5)cc4)C3)C(=O)OC12C (stereo not drawn) [Example 3.55, 3-descladinosyl-11,12-dideoxy-4-O-methyl-3-oxo-12,11-(oxycarbonyl-(1-(4-(2H-1,2,3-triazol-2-yl)benzenesulfonyl)-azetidin-3-yl)-imino)erythromycin A] | 1 (≈ 1.14 µM) | <0.06 | <0.06 | <0.06 | <0.06 | – | – | – | – | –
20 | CCC1OC(=O)C(C)C(=O)C(C)C(OC2OC(C)CC(N(C)C)C2O)C(C)(OC)CC(C)C(=O)C(C)C2N(C3CN(Cc4ccc(C#N)cc4)C3)C(=O)OC12C (stereo not drawn) [Example 1.14, 4-cyanobenzyl] | 0.25 (≈ 0.319 µM) | 1 (≈ 1.28 µM) | 0.5 (≈ 0.639 µM) | <0.06 | >64.00 | – | – | – | – | –
21 | CCC1OC(=O)C(C)C(=O)C(C)C(OC2OC(C)CC(N(C)C)C2O)C(C)(OC)CC(C)C(=O)C(C)C2N(CC3CCN(C(=O)c4ccc5cnccc5n4)C3)C(=O)OC12C (stereo not drawn) [13.09] | – | – | – | – | – | 4 (≈ 4.69 µM) | >64.00 | 1 (≈ 1.17 µM) | <0.06 | >64.00

From patent publication US7462600B2, “Macrolides” (Pfizer Inc, priority 2004, dated 2008)
